How the values were obtained:
Assay in all cases: Test C preemergence
Assay type in all cases: in vivo
[1] = system: ragweed (common ragweed, Ambrosia elatior); settings: Ambrosia artemisiifolia, pre-emergence, 336 h, scale 0 to 100, read-out: Plant response rating, Ragweed
In short: (§1)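 Treatment is preemergence to seeds in a loam and sand soil, or postemergence to plants 2 to 18 cm high in a peat moss-based medium. The compound is delivered in a non-phytotoxic solvent mixture including surfactant. Effects are judged by eye 13 to 15 days later on a 0 to 100 scale.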

[2] = system: winter wheat (Triticum aestivum); settings: Triticum aestivum, pre-emergence, 336 h, scale 0 to 100, read-out: Plant response rating, Wheat
In short: as §1

[3] = system: velvetleaf (Abutilon theophrasti); settings: Abutilon theophrasti, pre-emergence, scale 0 to 100, read-out: Plant response rating, Velvetleaf
In short: as §1

[4] = system: corn (Zea mays); settings: Zea mays, pre-emergence, 336 h, scale 0 to 100
In short: as §1

[5] = system: galium (catchweed bedstraw, Galium aparine); settings: Galium, pre-emergence, 336 h, scale 0 to 100, read-out: Plant response rating, Galium
In short: as §1

[6] = system: large (Lg) crabgrass (Digitaria sanguinalis); settings: Digitaria sanguinalis, pre-emergence, 336 h, scale 0 to 100, read-out: Plant response rating, Crabgrass, Large
In short: as §1

[7] = system: Italian ryegrass (Lolium multiflorum); settings: Lolium multiflorum, pre-emergence, 336 h, scale 0 to 100, read-out: Plant response rating, Ryegrass, Italian
In short: as §1

[8] = system: waterhemp (common waterhemp, Amaranthus rudis); settings: Amaranthus tuberculatus, pre-emergence, scale 0 to 100, read-out: Plant response rating, Waterhemp
In short: as §1

[9] = system: johnsongrass (Sorghum halepense); settings: Sorghum halepense, pre-emergence, 336 h, scale 0 to 100, read-out: Plant response rating, Johnsongrass
In short: as §1

[10] = system: barnyardgrass (Echinochloa crus-galli); settings: Echinochloa crus-galli, pre-emergence, read-out: Plant response rating, Barnyardgrass
In short: as §1

[11] = system: soybean (Glycine max); settings: Glycine max, pre-emergence, scale 0 to 100, read-out: Plant response rating, Soybean
In short: as §1

[12] = system: morningglory (Ipomoea coccinea); settings: Ipomoea, pre-emergence, 336 h, scale 0 to 100, read-out: Plant response rating, Morningglory
In short: as §1

[13] = system: lambsquarters (Chenopodium album); settings: Chenopodium album, pre-emergence, 336 h, scale 0 to 100, read-out: Plant response rating, Lambsquarters
In short: as §1

[14] = system: pigweed (Amaranthus retroflexus); settings: Amaranthus retroflexus, pre-emergence, 336 h, scale 0 to 100, read-out: Plant response rating, Pigweed
In short: as §1

[15] = system: giant foxtail (Setaria faberii); settings: Setaria faberi, pre-emergence, 336 h, scale 0 to 100, read-out: Plant response rating, Foxtail, Giant
In short: as §1

Fc1cccc(Oc2ncc(C(F)(F)F)cn2)c1Oc1ncc(Cl)cn1 [Compound 42, 5-chloro-2-[2-fluoro-6-[[5-(trifluoromethyl)-2-pyrimidinyl]oxy]phenoxy]pyrimidine]
pest or weed control at 31 g/ha ([1]; 31 g ai/ha, preemergence): 55% | pest or weed control at 62 g/ha ([1]; 62 g ai/ha, preemergence): 98% | pest or weed control at 125 g/ha ([1]; 125 g ai/ha, preemergence): 90% | pest or weed control at 16 g/ha ([1]; Preemergence, 16 g ai/ha): 30% | plant injury at 31 g/ha ([2]; 31 g ai/ha, preemergence): 30% | plant injury at 62 g/ha ([2]; 62 g ai/ha, preemergence): 45% | plant injury at 125 g/ha ([2]; 125 g ai/ha, preemergence): 90% | plant injury at 16 g/ha ([2]; Preemergence, 16 g ai/ha): 0% | pest or weed control at 31 g/ha ([3]; 31 g ai/ha, preemergence): 100% | pest or weed control at 62 g/ha ([3]; 62 g ai/ha, preemergence): 100% | pest or weed control at 125 g/ha ([3]; 125 g ai/ha, preemergence): 100% | pest or weed control at 16 g/ha ([3]; Preemergence, 16 g ai/ha): 100% | Corn plant response rating (crop injury, 0 = no effect, 100 = complete kill) at 31 g/ha ([4]; 31 g ai/ha, preemergence): 5% | Corn plant response rating (crop injury, 0 = no effect, 100 = complete kill) at 62 g/ha ([4]; 62 g ai/ha, preemergence): 80% | Corn plant response rating (crop injury, 0 = no effect, 100 = complete kill) at 125 g/ha ([4]; 125 g ai/ha, preemergence): 85% | Corn plant response rating (crop injury, 0 = no effect, 100 = complete kill) at 16 g/ha ([4]; Preemergence, 16 g ai/ha): 0% | pest or weed control at 31 g/ha ([5]; 31 g ai/ha, preemergence): 95% | pest or weed control at 62 g/ha ([5]; 62 g ai/ha, preemergence): 95% | pest or weed control at 125 g/ha ([5]; 125 g ai/ha, preemergence): 98% | pest or weed control at 16 g/ha ([5]; Preemergence, 16 g ai/ha): 95% | pest or weed control at 31 g/ha ([6]; 31 g ai/ha, preemergence): 100% | pest or weed control at 62 g/ha ([6]; 62 g ai/ha, preemergence): 100% | pest or weed control at 125 g/ha ([6]; 125 g ai/ha, preemergence): 100% | pest or weed control at 16 g/ha ([6]; Preemergence, 16 g ai/ha): 100% | pest or weed control at 31 g/ha ([7]; 31 g ai/ha, preemergence): 70% | pest or weed control at 62 g/ha ([7]; 62 g ai/ha, preemergence): 80% | pest or weed control at 125 g/ha ([7]; 125 g ai/ha, preemergence): 95% | pest or weed control at 16 g/ha ([7]; Preemergence, 16 g ai/ha): 5% | pest or weed control at 31 g/ha ([8]; 31 g ai/ha, preemergence): 100% | pest or weed control at 62 g/ha ([8]; 62 g ai/ha, preemergence): 100% | pest or weed control at 125 g/ha ([8]; 125 g ai/ha, preemergence): 100% | pest or weed control at 16 g/ha ([8]; Preemergence, 16 g ai/ha): 95% | pest or weed control at 31 g/ha ([9]; 31 g ai/ha, preemergence): 70% | pest or weed control at 62 g/ha ([9]; 62 g ai/ha, preemergence): 100% | pest or weed control at 125 g/ha ([9]; 125 g ai/ha, preemergence): 100% | pest or weed control at 16 g/ha ([9]; Preemergence, 16 g ai/ha): 30% | pest or weed control at 31 g/ha ([10]; 31 g ai/ha, preemergence, scale 0 to 100): 90% | pest or weed control at 62 g/ha ([10]; 62 g ai/ha, preemergence, scale 0 to 100): 100% | pest or weed control at 125 g/ha ([10]; 125 g ai/ha, preemergence, scale 0 to 100): 100% | pest or weed control at 16 g/ha ([10]; Preemergence, 16 g ai/ha, scale 0 to 100 (0 no effect, 100 complete control)): 50% | plant injury at 31 g/ha ([11]; 31 g ai/ha, preemergence): 50% | plant injury at 62 g/ha ([11]; 62 g ai/ha, preemergence): 80% | plant injury at 125 g/ha ([11]; 125 g ai/ha, preemergence): 95% | plant injury at 16 g/ha ([11]; Preemergence, 16 g ai/ha): 25% | pest or weed control at 31 g/ha ([12]; 31 g ai/ha, preemergence): 85% | pest or weed control at 62 g/ha ([12]; 62 g ai/ha, preemergence): 100% | pest or weed control at 125 g/ha ([12]; 125 g ai/ha, preemergence): 100% | pest or weed control at 16 g/ha ([12]; Preemergence, 16 g ai/ha): 60% | pest or weed control at 31 g/ha ([13]; 31 g ai/ha, preemergence): 100% | pest or weed control at 62 g/ha ([13]; 62 g ai/ha, preemergence): 100% | pest or weed control at 125 g/ha ([13]; 125 g ai/ha, preemergence): 100% | pest or weed control at 16 g/ha ([13]; Preemergence, 16 g ai/ha): 100% | pest or weed control at 31 g/ha ([14]; 31 g ai/ha, preemergence): 100% | pest or weed control at 62 g/ha ([14]; 62 g ai/ha, preemergence): 100% | pest or weed control at 125 g/ha ([14]; 125 g ai/ha, preemergence): 100% | pest or weed control at 16 g/ha ([14]; Preemergence, 16 g ai/ha): 100% | pest or weed control at 31 g/ha ([15]; 31 g ai/ha, preemergence): 100% | pest or weed control at 62 g/ha ([15]; 62 g ai/ha, preemergence): 100% | pest or weed control at 125 g/ha ([15]; 125 g ai/ha, preemergence): 100% | pest or weed control at 16 g/ha ([15]; Preemergence, 16 g ai/ha): 85%
